Experimental data taken from ChEMBL document CHEMBL6096702, “Discovery of a Novel p38α-MK2 Complex Inhibitor as a Potential Choice for Autoimmune Diseases” (J Med Chem, 2025).
Converted amounts (≈) assume the structure as drawn. The source made the active and inactive calls. No cut-off for these calls is given here.

Key:
[1] = Inhibition of N-terminal GST-tagged wildtype human P38alpha (4 to 152 residues) extracted from Escherichia coli/GST-tagged PRAK (unknown origin) assessed as reduction in HSP27 phosphorylation incubated for 2 hrs in presence of ATP and HSP27-FITC peptide by fluorescence polarization based IMAP assay
[2] = AUClast in male Sprague-Dawley rat at 1 mg/kg, iv measured after 24 hrs by LC-MS/MS analysis; format: ADME, organism-based; conditions: in vivo
[3] = Half-life in male Sprague-Dawley rat at 1 mg/kg, iv measured after 24 hrs by LC-MS/MS analysis; format: ADME, organism-based; conditions: in vivo
[4] = MRT in male Sprague-Dawley rat at 1 mg/kg, iv measured after 24 hrs by LC-MS/MS analysis; format: ADME, organism-based; conditions: in vivo
[5] = Cmax in male Sprague-Dawley rat at 2 mg/kg, po measured after 24 hrs by LC-MS/MS analysis; format: ADME, organism-based; conditions: in vivo
[6] = AUClast in male Sprague-Dawley rat at 2 mg/kg, po measured after 24 hrs by LC-MS/MS analysis; format: ADME, organism-based; conditions: in vivo
[7] = Oral bioavailability in male Sprague-Dawley rat at 2 mg/kg measured after 24 hrs by LC-MS/MS analysis; format: ADME, organism-based; conditions: in vivo
[8] = Volume of distribution at steady state in male Beagle dog at 1 mg/kg, iv measured after 24 hrs by LC-MS/MS analysis; format: ADME, organism-based, Canis lupus familiaris; conditions: in vivo, read-out: Vdss
[9] = Half-life in male Beagle dog at 1 mg/kg, iv measured after 24 hrs by LC-MS/MS analysis; format: ADME, organism-based, Canis lupus familiaris; conditions: in vivo
[10] = Cmax in male Beagle dog at 2 mg/kg, po measured after 24 hrs by LC-MS/MS analysis; format: ADME, organism-based, Canis lupus familiaris; conditions: in vivo
[11] = AUClast in male Beagle dog at 2 mg/kg, po measured after 24 hrs by LC-MS/MS analysis; format: ADME, organism-based, Canis lupus familiaris; conditions: in vivo
PBMC = assay: Inhibition of LPS-induced IL-6 production in human PBMC cells at 0.01 to 10000 nM preincubated with compound for 1 hrs followed by LPS addition and measured after 4 hrs; format: functional, cell-based; conditions: dose 0.01-10000 nM, time 5.0 hrs
[12] = Inhibition of HSP27 phosphorylation in human THP-1 cells at 0.1 to 1000 nM preincubated with compounds followed by LPS addition for 30 mins; format: cell-based
[13] = Inhibition of P38alpha/GST-tagged ATF2 (unknown origin) assessed as reduction in ATF2 phosphorylation incubated for 30 mins in presence of ATP by TR-FRET assay; design: species or system Homo sapiens
[14] = Selectivity ratio of IC50 for inhibition of P38alpha/GST-tagged ATF2 (unknown origin) to IC50 for inhibition of N-terminal GST-tagged wildtype human P38alpha (4 to 152 residues) extracted from Escherichia coli/GST-tagged MK2 (unknown origin)
[15] = biological target: MAP kinase-activated protein kinase 2 (Homo sapiens) (UniProt P49137); assay: Inhibition of LPS-induced MK2 phosphorylation in differentiated human THP-1 macrophage cells at 10 to 10000 nM preincubated with compound for 60 mins followed by LPS addition and measured after 30 mins by Western blot analysis; format: cell-based; conditions: dose 10-10000 nM, time 90.0 min
Cytochrome P450 3A4 = Cytochrome P450 3A4 (Homo sapiens, UniProt P08684); assay: Inhibition of CYP3A4 in human liver microsomes using midazolam as substrate in presence of NADP by LC-MS/MS analysis; format: ADME, Microsome
Cytochrome P450 2C9 = Cytochrome P450 2C9 (Homo sapiens, UniProt P11712); assay: Inhibition of CYP2C9 in human liver microsomes using tolbutamide as substrate in presence of NADP by LC-MS/MS analysis; format: ADME, Microsome
Cytochrome P450 2C19 = Cytochrome P450 2C19 (Homo sapiens, UniProt P33261); assay: Inhibition of CYP2C19 in human liver microsomes using mephenytoin as substrate in presence of NADP by LC-MS/MS analysis; format: ADME, Microsome
Cytochrome P450 1A2 = biological target: T1, Cytochrome P450 1A2 (Homo sapiens, UniProt P05177); assay: Inhibition of CYP1A2 in human liver microsomes using phenacetin as substrate in presence of NADP by LC-MS/MS analysis; format: ADME, Microsome
T1 sequence (P05177 whole entry): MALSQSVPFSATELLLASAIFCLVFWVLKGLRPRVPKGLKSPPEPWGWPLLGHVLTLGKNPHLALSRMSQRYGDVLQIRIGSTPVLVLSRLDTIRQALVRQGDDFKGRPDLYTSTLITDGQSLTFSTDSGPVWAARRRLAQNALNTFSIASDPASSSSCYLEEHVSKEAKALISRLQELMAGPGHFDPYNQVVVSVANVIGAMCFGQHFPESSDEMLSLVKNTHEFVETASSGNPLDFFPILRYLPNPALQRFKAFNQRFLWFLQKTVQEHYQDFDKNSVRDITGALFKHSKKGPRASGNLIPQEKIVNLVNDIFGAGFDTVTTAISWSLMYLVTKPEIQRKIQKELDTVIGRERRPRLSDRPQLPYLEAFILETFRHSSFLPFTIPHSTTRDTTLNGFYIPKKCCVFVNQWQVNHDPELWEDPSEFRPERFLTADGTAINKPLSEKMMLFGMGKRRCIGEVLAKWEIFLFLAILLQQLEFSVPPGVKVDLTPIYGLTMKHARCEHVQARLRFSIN

[16] = biological target: Voltage-gated inwardly rectifying potassium channel KCNH2 (Homo sapiens, UniProt Q12809); assay: Inhibition of human ERG in HEK293 cells; format: toxicity, cell-based
[17] = Solubility of compound in PBS at pH 7.4 measured after 4 to 24 hrs by LC-MS analysis; format: physicochemical; conditions: time 4-24 hrs
[18] = Half-life in female Lewis rat at 1 mg/kg, po measured after 24 hrs by LC-MS/MS analysis; format: ADME, organism-based; conditions: in vivo
[19] = Cmax in female Lewis rat at 1 mg/kg, po measured after 24 hrs by LC-MS/MS analysis; format: ADME, organism-based; conditions: in vivo
[20] = AUC (0 to 24 hrs) in female Lewis rat at 1 mg/kg, po measured after 24 hrs by LC-MS/MS analysis; format: ADME, organism-based; conditions: in vivo
[21] = Half-life in female Lewis rat at 3 mg/kg, po measured after 24 hrs by LC-MS/MS analysis; format: ADME, organism-based; conditions: in vivo
[22] = AUC (0 to 24 hrs) in female Lewis rat at 3 mg/kg, po measured after 24 hrs by LC-MS/MS analysis; format: ADME, organism-based; conditions: in vivo
Rattus norvegicus [23] = assay: Antiarthritic activity in Mycobacterium tuberculosis H37R-induced female Lewis rat model of arthritis at 0.3 mg/kg, po administered twice daily for 15 days starting from day 13 after adjuvant administration; format: functional, organism-based; conditions: time 15.0 day
Rattus norvegicus [24] = assay: Antiarthritic activity in Mycobacterium tuberculosis H37R-induced female Lewis rat model of arthritis at 1 mg/kg, po administered twice daily for 15 days starting from day 13 after adjuvant administration; format: functional, organism-based; conditions: time 15.0 day
Rattus norvegicus [25] = assay: Antiarthritic activity in Mycobacterium tuberculosis H37R-induced female Lewis rat model of arthritis assessed as reduction in clinical score at 1 mg/kg, po administered twice daily for 15 days starting from day 13 after adjuvant administration; format: functional, organism-based; conditions: time 15.0 day
Rattus norvegicus [26] = assay: Antiarthritic activity in Mycobacterium tuberculosis H37R-induced female Lewis rat model of arthritis assessed as reduction in paw inflammation at 0.3 to 1 mg/kg, po administered twice daily for 15 days starting from day 13 after adjuvant administration by micro-CT analysis; format: functional, organism-based; conditions: dose 0.3-1 mg/kg, time 15.0 day

Sequence of Voltage-gated inwardly rectifying potassium channel KCNH2 (Q12809 whole entry): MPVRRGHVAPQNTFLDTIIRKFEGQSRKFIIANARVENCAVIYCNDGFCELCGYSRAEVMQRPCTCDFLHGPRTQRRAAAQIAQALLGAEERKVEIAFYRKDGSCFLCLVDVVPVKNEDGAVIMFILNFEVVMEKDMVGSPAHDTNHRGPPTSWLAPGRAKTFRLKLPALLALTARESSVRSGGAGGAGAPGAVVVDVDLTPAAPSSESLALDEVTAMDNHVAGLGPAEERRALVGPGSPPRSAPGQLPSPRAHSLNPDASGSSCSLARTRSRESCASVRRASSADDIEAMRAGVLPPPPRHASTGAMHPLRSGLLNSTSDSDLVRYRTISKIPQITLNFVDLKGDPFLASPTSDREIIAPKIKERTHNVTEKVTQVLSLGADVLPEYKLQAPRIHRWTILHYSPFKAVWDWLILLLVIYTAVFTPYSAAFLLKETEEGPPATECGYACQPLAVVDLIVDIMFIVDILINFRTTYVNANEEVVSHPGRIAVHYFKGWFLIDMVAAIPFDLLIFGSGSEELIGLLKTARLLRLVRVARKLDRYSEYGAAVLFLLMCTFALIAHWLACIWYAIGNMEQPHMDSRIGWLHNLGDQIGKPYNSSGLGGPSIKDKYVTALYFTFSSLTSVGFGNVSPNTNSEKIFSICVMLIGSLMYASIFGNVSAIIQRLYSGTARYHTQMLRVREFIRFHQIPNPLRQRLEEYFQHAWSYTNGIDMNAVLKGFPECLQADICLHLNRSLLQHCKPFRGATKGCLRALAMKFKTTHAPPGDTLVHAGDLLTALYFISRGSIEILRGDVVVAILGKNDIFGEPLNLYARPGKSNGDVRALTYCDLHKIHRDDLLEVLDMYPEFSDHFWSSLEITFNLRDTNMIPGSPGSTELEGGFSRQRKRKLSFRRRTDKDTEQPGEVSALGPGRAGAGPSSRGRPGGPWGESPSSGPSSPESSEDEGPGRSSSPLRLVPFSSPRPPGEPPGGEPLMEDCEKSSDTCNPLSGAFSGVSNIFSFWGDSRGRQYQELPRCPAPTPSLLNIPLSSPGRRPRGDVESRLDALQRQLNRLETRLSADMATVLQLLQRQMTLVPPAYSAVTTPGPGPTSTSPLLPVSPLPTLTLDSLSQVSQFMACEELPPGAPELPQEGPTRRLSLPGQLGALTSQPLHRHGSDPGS
Sequence of Cytochrome P450 2C9 (P11712 whole entry): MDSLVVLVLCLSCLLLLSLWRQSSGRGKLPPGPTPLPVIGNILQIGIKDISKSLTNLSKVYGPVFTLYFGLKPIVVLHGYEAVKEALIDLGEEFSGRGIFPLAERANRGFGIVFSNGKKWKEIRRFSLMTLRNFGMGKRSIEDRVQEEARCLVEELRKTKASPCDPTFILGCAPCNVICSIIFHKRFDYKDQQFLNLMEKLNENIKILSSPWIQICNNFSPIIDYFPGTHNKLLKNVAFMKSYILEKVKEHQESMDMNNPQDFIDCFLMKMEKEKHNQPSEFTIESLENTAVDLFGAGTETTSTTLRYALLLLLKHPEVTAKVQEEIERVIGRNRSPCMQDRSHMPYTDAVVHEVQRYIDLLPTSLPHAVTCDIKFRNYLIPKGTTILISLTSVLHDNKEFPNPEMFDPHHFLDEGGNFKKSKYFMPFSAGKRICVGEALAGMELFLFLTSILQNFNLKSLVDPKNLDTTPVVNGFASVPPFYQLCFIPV
Sequence of Cytochrome P450 3A4 (P08684 whole entry): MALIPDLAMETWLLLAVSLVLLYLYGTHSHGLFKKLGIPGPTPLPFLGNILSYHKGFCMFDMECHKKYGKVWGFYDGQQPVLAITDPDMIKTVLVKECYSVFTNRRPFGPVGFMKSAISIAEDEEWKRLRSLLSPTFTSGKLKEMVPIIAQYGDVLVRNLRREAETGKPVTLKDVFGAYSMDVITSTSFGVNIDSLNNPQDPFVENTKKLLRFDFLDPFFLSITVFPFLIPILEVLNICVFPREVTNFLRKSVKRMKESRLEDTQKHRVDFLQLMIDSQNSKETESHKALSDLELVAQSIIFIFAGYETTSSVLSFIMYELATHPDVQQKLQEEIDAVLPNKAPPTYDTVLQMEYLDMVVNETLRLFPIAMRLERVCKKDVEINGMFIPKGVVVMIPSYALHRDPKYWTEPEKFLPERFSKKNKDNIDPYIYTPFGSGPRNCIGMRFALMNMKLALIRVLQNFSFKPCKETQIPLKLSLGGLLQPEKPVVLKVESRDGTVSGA
Sequence of Cytochrome P450 2C19 (P33261 whole entry): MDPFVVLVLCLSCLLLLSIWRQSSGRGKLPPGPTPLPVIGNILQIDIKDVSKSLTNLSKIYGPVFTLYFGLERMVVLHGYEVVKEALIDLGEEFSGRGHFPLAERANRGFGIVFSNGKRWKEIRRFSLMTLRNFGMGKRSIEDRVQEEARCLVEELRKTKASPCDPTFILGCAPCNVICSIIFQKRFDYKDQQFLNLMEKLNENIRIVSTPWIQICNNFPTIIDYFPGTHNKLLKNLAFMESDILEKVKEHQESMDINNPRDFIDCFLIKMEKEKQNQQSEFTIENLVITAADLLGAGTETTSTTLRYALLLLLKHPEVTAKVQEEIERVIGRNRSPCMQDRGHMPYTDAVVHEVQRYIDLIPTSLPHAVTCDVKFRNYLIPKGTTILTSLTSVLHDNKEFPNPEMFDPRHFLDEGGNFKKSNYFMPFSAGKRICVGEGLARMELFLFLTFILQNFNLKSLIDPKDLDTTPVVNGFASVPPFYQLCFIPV
Sequence of MAP kinase-activated protein kinase 2 (Homo sapiens) (P49137 whole entry, looked up): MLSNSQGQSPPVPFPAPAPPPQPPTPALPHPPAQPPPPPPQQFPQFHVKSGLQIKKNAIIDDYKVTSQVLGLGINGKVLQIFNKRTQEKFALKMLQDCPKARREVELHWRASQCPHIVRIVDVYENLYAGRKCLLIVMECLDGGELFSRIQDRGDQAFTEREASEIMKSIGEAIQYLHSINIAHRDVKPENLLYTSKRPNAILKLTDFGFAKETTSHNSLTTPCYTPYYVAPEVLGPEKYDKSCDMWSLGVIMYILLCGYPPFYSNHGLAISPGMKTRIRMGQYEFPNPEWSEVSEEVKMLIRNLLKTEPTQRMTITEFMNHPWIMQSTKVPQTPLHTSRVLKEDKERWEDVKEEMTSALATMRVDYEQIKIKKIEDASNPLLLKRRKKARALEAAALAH

Cc1cnc(-c2ccnc(C(C)(C)O)n2)c(F)c1-n1c(C)cc(O[C@@H](C)c2ncc(F)cc2F)c(C)c1=O
IC50 [1]: 5.85 µM | AUC(0-t) at 24 h [2]: 1800 ng·h/mL | half-life [3]: 2.8 h | MRT [4]: 2.2 h | Cmax [5]: 1140 ng/mL | AUC(0-t) at 24 h [6]: 4340 ng·h/mL | bioavailability [7]: 121% | Vd [8]: 0.8 L/kg | half-life [9]: 2.9 h | Cmax [10]: 1120 ng/mL | AUC(0-t) at 24 h [11]: 5080 ng·h/mL | inhibition (PBMC): Active | IC50 [12]: 0.001 µM | IC50 [13]: 1 µM | Ratio IC50 [14]: 263 | inhibition [15]: Active | IC50 (Cytochrome P450 3A4): > 40 µM | IC50 (Cytochrome P450 2C9): > 40 µM | IC50 (Cytochrome P450 2C19): > 40 µM | IC50 (Cytochrome P450 1A2): > 40 µM | IC50 [16]: > 30 µM | solubility [17]: 88.3 µg/mL (≈ 168 µM) | half-life [18]: 3.9 h | Cmax [19]: 299 ng/mL | AUC(0-t) at 24 h [20]: 2390 ng·h/mL | half-life [21]: 3.5 h | AUC(0-t) at 24 h [22]: 6480 ng·h/mL | Activity (Rattus norvegicus [23]): Active; Significant Clinical Effect Observed | Activity (Rattus norvegicus [24]): Active | Activity (Rattus norvegicus [25]): Active; Comparable To 3 Mg/Kg Of Compound 1 | Activity (Rattus norvegicus [26]): Active
